Test results as given in paper PMC7724566, “Prospects for Clinical Development of Stat5 Inhibitor IST5-002: High Transcriptomic Specificity in Prostate Cancer and Low Toxicity In Vivo” (Cancers, 2020).

Legend:
JAK3 = biological target: T1, JAK3 (Homo sapiens, UniProt P52333); assay: Cell-based tyrosine phosphorylation of Jak kinases (IP/immunoblot); set-up: endogenous in cells; host or cells: DU145 and CWR22Pc; details: 6 µM, 6 h
T1 sequence (P52333 1-1124): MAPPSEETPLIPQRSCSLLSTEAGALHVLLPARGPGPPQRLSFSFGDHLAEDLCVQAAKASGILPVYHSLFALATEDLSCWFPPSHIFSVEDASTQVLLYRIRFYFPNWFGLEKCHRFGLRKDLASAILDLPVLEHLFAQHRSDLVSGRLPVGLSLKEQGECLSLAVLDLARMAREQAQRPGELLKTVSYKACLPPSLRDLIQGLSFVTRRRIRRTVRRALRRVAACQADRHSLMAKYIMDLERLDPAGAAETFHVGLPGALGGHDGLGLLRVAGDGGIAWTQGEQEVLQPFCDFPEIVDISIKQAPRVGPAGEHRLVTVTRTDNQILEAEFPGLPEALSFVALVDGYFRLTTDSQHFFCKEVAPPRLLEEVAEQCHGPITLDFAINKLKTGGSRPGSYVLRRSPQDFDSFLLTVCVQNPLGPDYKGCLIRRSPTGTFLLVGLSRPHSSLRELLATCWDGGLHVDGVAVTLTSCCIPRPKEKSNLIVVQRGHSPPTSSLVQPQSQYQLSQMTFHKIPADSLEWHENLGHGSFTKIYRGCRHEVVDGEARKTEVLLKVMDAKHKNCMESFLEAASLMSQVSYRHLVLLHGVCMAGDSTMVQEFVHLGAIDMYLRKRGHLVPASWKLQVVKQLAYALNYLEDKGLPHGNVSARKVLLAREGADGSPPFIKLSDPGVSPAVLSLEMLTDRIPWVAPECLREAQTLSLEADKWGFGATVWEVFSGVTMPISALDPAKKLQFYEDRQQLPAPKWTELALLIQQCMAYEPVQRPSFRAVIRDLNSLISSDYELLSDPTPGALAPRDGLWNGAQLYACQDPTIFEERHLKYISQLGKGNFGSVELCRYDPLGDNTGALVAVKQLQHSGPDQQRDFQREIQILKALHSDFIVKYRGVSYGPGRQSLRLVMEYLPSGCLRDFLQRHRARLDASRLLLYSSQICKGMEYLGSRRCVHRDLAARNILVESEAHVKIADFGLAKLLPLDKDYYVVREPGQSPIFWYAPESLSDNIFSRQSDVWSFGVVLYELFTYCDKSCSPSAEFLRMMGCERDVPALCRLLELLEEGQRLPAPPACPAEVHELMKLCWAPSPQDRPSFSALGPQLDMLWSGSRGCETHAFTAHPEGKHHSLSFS
Source text: (§1) Figure 5 Both IST5 and IST5-M suppress dimerization of Stat5 with similar efficacies in prostate cancer cells. (A), IST5 and IST5-M inhibit equally potently dimerization of Stat5 in native-gel-based Stat5 dimerization assay. CWR22Rv1 cells were transfected with STAT5A-eYFP (Stat5 wild type), STAT5A-N642H-eYFP (constitutive activated Stat5 by N642H mutation, as a positive control) or STAT3-eYFP (Stat3 wild type, as a negative control) constructs for 3 days. CWR22Rv1 cells were serum-starved for 16 h, pretreated with vanadate (1 mM) for 2 h, followed by treatment with vehicle, IST5 and IST5-M (1 µM) for 6 h and stimulation with Prl (10 nM) for 1 h. Dimerization of Stat5 was analyzed by detection of the eYFP fluorescence of the native Coomassie gel. (B), IST5 and IST5-M inhibited cytokine-induced dimerization of Stat5 with high efficacy in PC cells. PC-3 cells were co-transfected with pCMV-3Flag-Stat5a, pCMV-3Myc-Stat5a, and pPrlR plasmids. Cells were serum-starved for 16 h, pretreated with IST5, IST5-M or vehicle at indicated concentrations for 2 h, followed by stimulation with Prl (10 nM) for 30 min. Anti-MYC mAb was utilized to immunoprecipitate the MYC-tagged Stat5a and blotted with anti-FLAG mAb or anti-MYC mAb, as indicated. […] (C), densitometric analyses of the Stat5 dimerization data based on co-immunoprecipitations and immunoblotting in (B). […] Prostate cancer cells were treated with IST5 (6 µM) or vehicle for 6 h. Jak1, Jak2, Jak3 and Tyk2 were immunoprecipitated and blotted with anti-phospho-tyrosine, Jak1, Jak2, Jak3 and Tyk2 antibodies. Whole cell lysates (WCL) were immunoblotted for actin. (E), differences in posttranslational modifications were detected between native and recombinant STAT5a using mass spectrometry. Native STAT5a from CWR22Rv1 cells and recombinant STAT5a from E. coli were gel-purified, digested using trypsin, and analyzed by bottom-up mass spectrometry. Native full-length STAT5a (blue) is show with recombinant STAT5A highlighted (red). Sites of acetylation and phosphorylation from the respective sources are noted including two previously published sites of phosphorylation (asterisk).
(§2) Given that IST5 suppresses phosphorylation of Stat5 in PC cells, it is possible that IST5 inhibits the kinase(s) responsible for Stat5 phosphorylation and activation in PC cells. To evaluate if IST5 affects kinase activity in cancer cells, we tested kinase inhibitory activity of IST5 in two custom-tailored panels including 54 relevant kinases (Table 1), including Jak1, Jak2, Jak3, Tyk2, Abl1, Abl2, Lck, Fyn, Src and TrkB/C. In addition, we further tested if IST5 inhibits tyrosine phosphorylation of Jak1, Jak2, Jak3 or Tyk2 using a cell-based assay (Figure 5D), where phosphorylation of the kinase is indicative of enzymatic kinase activity. DU145 and CWR22Rv1 cells were treated with IST5 (6 µM) for 6 h followed by immunoprecipitation of Jak1, Jak2, Jak3 and Tyk2 and immunoblotting with anti-phospho-tyrosine antibody. […] Collectively, these findings indicate that the inhibitory effect of IST5 on Stat5 phosphorylation in cancer cells is not due to inhibition of Jak2 or other key kinases including Jak1, Jak3, Tyk2, Src, Lck, Fyn, TrkB/C, Abl1 or Abl2 (Table 1, Figure 5D).
(§3) Cell pellets were solubilized in the lysis buffer (10 mM Tris-HCl (pH 7.6), 5 mM EDTA, 50 mM sodium chloride, 30 mM sodium pyrophosphate, 50 mM sodium fluoride, 1 mM sodium orthovanadate, 1% Triton X-100, 1 mM phenylmethylsulfonyl fluoride, 5 µg/mL aprotinin, 1 µg/mL pepstatin A and 2 µg/mL leupeptin), and protein concentrations of clarified cell lysates were determined by a simplified Bradford method (Bio-Rad, Hercules, CA, USA). The whole cell lysates were immunoprecipitated with polyclonal antibodies (Table S1) followed by incubation with protein A-Sepharose beads (GE Healthcare, Chicago, IL, USA). […]

JAK2 = JAK2 (Homo sapiens, UniProt O60674); assay: as above; set-up: endogenous in cells; host or cells: DU145 and CWR22Pc; details: 6 µM, 6 h
JAK2, sequence (O60674 whole entry): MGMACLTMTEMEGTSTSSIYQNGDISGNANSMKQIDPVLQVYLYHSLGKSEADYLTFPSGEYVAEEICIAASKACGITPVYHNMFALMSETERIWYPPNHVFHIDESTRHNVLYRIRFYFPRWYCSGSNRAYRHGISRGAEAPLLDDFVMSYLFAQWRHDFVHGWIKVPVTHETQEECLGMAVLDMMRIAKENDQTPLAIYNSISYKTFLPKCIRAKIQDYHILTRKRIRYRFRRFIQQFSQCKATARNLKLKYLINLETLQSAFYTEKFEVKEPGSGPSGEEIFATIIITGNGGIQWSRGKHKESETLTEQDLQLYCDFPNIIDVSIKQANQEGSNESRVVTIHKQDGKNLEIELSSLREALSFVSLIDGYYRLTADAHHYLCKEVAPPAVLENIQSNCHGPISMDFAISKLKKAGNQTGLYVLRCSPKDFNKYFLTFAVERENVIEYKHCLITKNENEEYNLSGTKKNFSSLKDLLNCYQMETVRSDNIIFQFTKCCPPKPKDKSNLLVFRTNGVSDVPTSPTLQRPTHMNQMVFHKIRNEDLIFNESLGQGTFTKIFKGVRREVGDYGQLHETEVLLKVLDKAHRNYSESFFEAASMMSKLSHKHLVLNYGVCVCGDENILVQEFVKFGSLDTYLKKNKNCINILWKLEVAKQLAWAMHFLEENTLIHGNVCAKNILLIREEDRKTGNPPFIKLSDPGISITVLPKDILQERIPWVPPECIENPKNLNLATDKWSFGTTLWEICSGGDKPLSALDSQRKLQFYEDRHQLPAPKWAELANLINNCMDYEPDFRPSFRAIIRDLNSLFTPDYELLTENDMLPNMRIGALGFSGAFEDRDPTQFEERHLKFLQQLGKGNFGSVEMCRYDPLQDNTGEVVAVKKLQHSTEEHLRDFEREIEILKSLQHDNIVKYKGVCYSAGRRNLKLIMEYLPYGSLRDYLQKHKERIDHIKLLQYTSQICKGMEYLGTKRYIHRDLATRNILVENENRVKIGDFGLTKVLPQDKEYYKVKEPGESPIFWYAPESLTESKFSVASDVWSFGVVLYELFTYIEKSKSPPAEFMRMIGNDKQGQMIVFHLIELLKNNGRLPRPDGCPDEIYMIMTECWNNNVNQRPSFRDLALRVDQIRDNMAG
Source text: as §1, §2, §3

O=P(O)(O)OCC1OC(n2cnc3c(NCc4ccccc4)ncnc32)C(O)C1O (stereo not shown) [IST5]
did not alter: phosphorylation of Jak3 (JAK3; CWR22Pc cells) | phosphorylation of Jak3 (JAK3; DU145 cells) | phosphorylation of Jak2 (JAK2; CWR22Pc cells) | phosphorylation of Jak2 (JAK2; DU145 cells)
